Source: patent publication EP3628672A1 (priority 2018, dated 2020)
Like-named read-outs stand apart in the source and are kept apart here.

Experiments:
[1] = target: T1, purified LasB protein from P. aeruginosa (Pseudomonas aeruginosa, UniProt P14756); assay: Fluorometric assay to determine Ki (Abz-Ala-Gly-Leu-Ala-p-Nitro-Benzyl-Amide substrate); format: biochemical
T1 construct: purchased Merck or Charles River Laboratories
Protocol: (§1) Experiments were therefore conducted (1) to measure the potency of inhibition of compounds of the invention against purified Pseudomonas aeruginosa LasB enzyme and also experiments were conducted (2) to measure the ability of compounds of the invention to inhibit LasB-catalysed elastin degradation. The first assay uses a commercial fluorescent synthetic peptide and purified LasB enzyme. The LasB hydrolysis kinetics are measured allowing the determination of the IC50 and Ki of the inhibitors; the second is a more physiological assay using dialysed Pseudomonas aeruginosa supernatant as source of enzyme, plus its natural substrate Elastin. It is an "end point assay" that determines the percentage of LasB inhibition by each compound for one particular time point and inhibitor concentration. Technical details are described below:
This assay uses commercially available substrate (Abz-Ala-Gly-Leu-Ala-p-Nitro-Benzyl-Amide (Ex: 340 nm, Em: 415 nm) from Peptide International) and purified LasB protein from P. aeruginosa (provided by Merck or Charles River Laboratories). It is performed to determine LasB elastase activity and assess compound inhibition in 96-well plate format. All compounds of Formula (I) were assessed using the method described below.
Method: 10 to 140 ng/ml purified LasB is incubated with 250 µM Abz-Ala-Gly-Leu-Ala-p-Nitro-Benzyl-Amide in 50 mM Tris-HCl pH 7.4, 2.5 mM CaCl2, 0.01% of Triton X100 at 37°C. LasB activity (corresponding to fluorescence emission induced by substrate hydrolysis) is measured over 30 min at 37°C with a fluorescence plate reader such as the Perkin Elmer Envision or similar. Different range of inhibitor concentrations are routinely assessed depending of inhibitor potency from 0.0016 to 200 µM (2-fold dilutions series) in order to determine IC50.
The equation used to calculate the Ki from IC50 is: Ki = IC50 / (1+([S]/Km)) where [S] = 250 µM and Km = 214 µM.

LasB = target: T2, LasB (Pseudomonas aeruginosa, UniProt P14756); assay: Elastin assay to determine % inhibition (Elastin Congo-Red, dialysed culture supernatant); format: biochemical, P. aeruginosa PAO1; conditions: read-out: Elastin hydrolysis % inhibition @ 50 / 25 µM inhibitor concentration
T2 construct: uses as source of enzyme dialysed supernatant from P. aeruginosa PAO1; endogenous in cells; host or cells: P. aeruginosa PAO1 culture supernatant, filtered and dialysed
Protocol: as §1
The Elastin assay uses as source of enzyme dialysed supernatant from P. aeruginosa PAO1 and the Elastin Congo-Red as substrate. The natural LasB substrate, elastin, is complexed with the congo-red dye (Elastin Congo-Red, ECR). The elastolysis activity from the culture supernatant will degrade elastin and release the congo-red dye into the supernatant. This red dye release can be measured with a spectrophotometer.
Method: To determine LasB elastase activity and assess compound inhibition, an overnight culture of P. aeruginosa strain PAO1 is diluted in LB medium. After reaching an OD600nm of 0.6, this culture is diluted and incubated for additional 18-24 hours in a shaking incubator. Culture supernatants are recovered by centrifugation and filtrated through a […] filter. These supernatants are dialysed (filtration molecules < 20kDa) into a 50 mM Tris-HCl pH 7.4, 2.5 mM CaCl2 solution at 4°C under agitation for 24 hours. Supernatant dialysed is then mixed volume/volume with the ECR suspension (20 mg/mL of ECR in 100 mM Tris-HCl pH 7.4 buffer supplemented with 1 mM CaCl2) supplemented with Triton X100 (final concentration of 0.01%) in presence of DMSO (positive control) and/or different concentrations of compound (routinely 50 to 1.56 µM). As a negative control, the dialysed supernatant is replaced by Tris-HCl solution (50 mM Tris-HCl pH 7.4, 2.5 mM CaCl2). The mixed reaction is then incubated overnight in a 37°C shaking incubator. The reaction supernatant is recovered by centrifugation and the release of congo-red is measured by its absorbance at 495 nm (OD495nm).
Percentage inhibition is determined using the following equation: ((OD495nmvalue of positive control−OD495nmvalue of negative control)−(OD495nmvalue of treated supernatant−OD495nmvalue of positive control))/(OD495nmvalue of positive control−OD495nmvalue of negative control) × 100. [formula]

[2] = Ki calculated from IC50, [S] = 250 µM, Km = 214 µM, 37°C, pH 7.4

T2 sequence (P14756 198-498): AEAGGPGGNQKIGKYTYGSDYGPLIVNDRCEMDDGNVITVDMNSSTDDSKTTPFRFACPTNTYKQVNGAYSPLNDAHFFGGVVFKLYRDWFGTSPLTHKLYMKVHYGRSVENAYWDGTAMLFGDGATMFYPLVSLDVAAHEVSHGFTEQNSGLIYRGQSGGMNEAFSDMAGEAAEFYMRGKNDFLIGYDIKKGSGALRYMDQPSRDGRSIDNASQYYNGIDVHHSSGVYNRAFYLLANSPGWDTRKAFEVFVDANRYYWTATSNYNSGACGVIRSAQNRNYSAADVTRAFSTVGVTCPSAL
T1 sequence (P14756 198-498): as above

## Cc1cc(-c2csc(CNC(=O)C3(CC(=O)O)Cc4ccccc4C3)n2)n[nH]1 [Example 98, 2-[2-[[4-(5-methyl-1H-pyrazol-3-yl)thiazol-2-yl]methylcarbamoyl]indan-2-yl] acetic acid]
[1]
  Ki: 200 to 10000 nM
LasB
  inhibition at 25 µM: 60 to 75%

## O=C(O)CC1(C(=O)NCc2nc(-c3cnn(CCCN4CCOCC4)c3)cs2)Cc2ccccc2C1 [Example 99, 2-[2-[[4-[1-(3-morpholinopropyl)pyrazol-4-yl]thiazol-2-yl]methylcarbamoyl]indan-2-yl]acetic acid]
[1]
  Ki: 50 to 200 nM
LasB
  inhibition at 25 µM: 60 to 75%

## COc1cc(OCc2cccnc2)ccc1-c1csc(CNC(=O)C2(CC(=O)O)Cc3ccccc3C2)n1 [Example 78, 2-[2-[[4-[2-methoxy-4-(3-pyridylmethoxy)phenyl]thiazol-2-yl]methylcarbamoyl]indan-2-yl]acetic acid]
[1]
  Ki: < 50 nM
LasB
  inhibition at 25 µM: > 75%

## CN(C)CC(=O)N1CCC(n2cc(-c3csc(CNC(=O)C4(CC(=O)O)Cc5ccccc5C4)n3)cn2)CC1 [Example 103, 2-[2-[[4-[1-[1-[2-(dimethylamino)acetyl]-4-piperidyl]pyrazol-4-yl]thiazol-2-yl]methylcarbamoyl]indan-2-yl]acetic acid]
[1]
  Ki: 200 to 10000 nM
LasB
  inhibition at 25 µM: 60 to 75%

## COc1cc(OCCc2nccn2C)ccc1-c1csc(CNC(=O)C2(CC(=O)O)Cc3ccccc3C2)n1 [Example 85, 2-[2-[[4-[2-methoxy-4-[2-(1-methylimidazol-2-yl)ethoxy]phenyl]thiazol-2-yl]methylcarbamoyl]indan-2-yl]acetic acid]
[1]
  Ki: 50 to 200 nM
LasB
  inhibition at 25 µM: 60 to 75%

## O=C(O)CC1(C(=O)NCc2nc(-c3cccnc3)cs2)Cc2ccccc2C1 [Example 8, 2-[2-[[4-(3-pyridyl)thiazol-2-yl]methylcarbamoyl]indan-2-yl]acetic acid]
[1]
  Ki: 50 to 200 nM
LasB
  inhibition at 25 µM: 60 to 75%

## C[N+]1(CCCOc2ccc(-c3csc(CNC(=O)C4(CC(=O)[O-])Cc5ccccc5C4)n3)cc2)CCOCC1 [Example 56, 2-[2-[[4-[4-[3-(4-methylmorpholin-4-ium-4-yl)propoxy]phenyl]thiazol-2-yl]methylcarbarmoyl]indan-2-yl]acetate]
[1]
  Ki: 50 to 200 nM
LasB
  inhibition at 25 µM: 60 to 75%

## CN(C)[C@@H]1CCN(C(=O)c2ccc(-c3csc(CNC(=O)C4(CC(=O)O)Cc5ccccc5C4)n3)cc2)C1 [Example 19, 2-[2-[[4-[4-[(3R)-3-(dimethylamino)pyrrolidine-1-carbonyl]phenyl]thiazol-2-yl]methylcarbamoyl]indan-2-yl]acetic acid]
[1]
  Ki: 200 to 10000 nM
LasB
  inhibition at 25 µM: 60 to 75%

## COc1ccc(-c2csc(CNC(=O)C3(CC(=O)O)Cc4ccccc4C3)n2)cc1S(=O)(=O)N1CCN(C)CC1 [Example 122]
[1]; [2]
  Ki: 50 to 200 nM
LasB
  inhibition at 25 µM: > 75%

## CS(=O)(=O)c1cc(-c2csc(CNC(=O)C3(CC(=O)O)Cc4ccccc4C3)n2)ccc1OCCCN1CCOCC1 [Example 60, 2-[2-[[4-[3-methylsulfonyl-4-(3-morpholinopropoxy)phenyl]thiazol-2-yl]methylcarbamoyl]indan-2-yl]acetic acid]
[1]
  Ki: < 50 nM
LasB
  inhibition at 25 µM: 60 to 75%

## C[N+]1(C)CCN(S(=O)(=O)c2cccc(-c3csc(CNC(=O)C4(CC(=O)[O-])Cc5ccccc5C4)n3)c2)CC1 [Example 128, 2-[2-[[4-[3-(4,4-dimethylpiperazin-4-ium-1-yl)sulfonylphenyl]thiazol-2-yl]methylcarbamoyl]indan-2-yl]acetate]
[1]
  Ki: 200 to 10000 nM
LasB
  inhibition at 25 µM: 10 to 60%

## O=C(O)CC1(C(=O)NCc2nc(-c3ccccc3O)cs2)Cc2ccccc2C1 [Example 10, 2-[2-[[4-(2-hydroxyphenyl)thiazol-2-yl]methylcarbamoyl]indan-2-yl]acetic acid]
[1]
  Ki: 50 to 200 nM
LasB
  inhibition at 25 µM: 10 to 60%

## COc1cc(OCCN2CCN(C(C)=O)CC2)ccc1-c1csc(CNC(=O)C2(CC(=O)O)Cc3ccccc3C2)n1 [Example 88]
[1]
  Ki: < 50 nM
LasB
  inhibition at 25 µM: > 75%

## Cc1c(-c2csc(CNC(=O)C3(CC(=O)O)Cc4ccccc4C3)n2)cnn1C [Example 91, 2-[2-[[4-(1,5-dimethylpyrazol-4-yl)thiazol-2-yl]methylcarbamoyl]indan-2-yl]acetic acid]
[1]
  Ki: 50 to 200 nM
LasB
  inhibition at 25 µM: > 75%

## O=C(O)CC1(C(=O)NCc2ncc(-c3ccccc3)s2)Cc2ccccc2C1 [Example 2, 2-[2-[(5-phenylthiazol-2-yl)methylcarbamoyl]indan-2-yl]acetic acid]
[1]
  Ki: 200 to 10000 nM
LasB
  inhibition at 25 µM: 10 to 60%

## COc1cccc(-c2csc(CNC(=O)C3(CC(=O)O)Cc4ccccc4C3)n2)c1 [Example 5, 2-[2-[[4-(3-methoxyphenyl)thiazol-2-yl]methylcarbamoyl]indan-2-yl]acetic acid]
[1]
  Ki: 50 to 200 nM
LasB
  inhibition at 25 µM: 60 to 75%

## CN(C)CCNC(=O)c1ccc(-c2csc(CNC(=O)C3(CC(=O)O)Cc4ccccc4C3)n2)cc1 [Example 15, 2-[2-[[4-[4-[2-(dimethylamino)ethylcarbamoyl]phenyl]thiazol-2-yl]methylcarbamoyl]indan-2-yl]acetic acid]
[1]
  Ki: 200 to 10000 nM
LasB
  inhibition at 25 µM: 60 to 75%

## CN1CCN(CCCOc2ccc(-c3csc(CNC(=O)C4(CC(=O)O)Cc5ccccc5C4)n3)cc2)CC1 [Example 57, 2-[2-[[4-[4-[3-(4-methylpiperazin-1-yl)propoxy]phenyl]thiazol-2-yl]methylcarbamoyl]indan-2-yl]acetic acid]
[1]
  Ki: 50 to 200 nM
LasB
  inhibition at 25 µM: 60 to 75%

## CN1CCN(C(=O)Cn2cc(-c3csc(CNC(=O)C4(CC(=O)O)Cc5ccccc5C4)n3)cn2)CC1 [Example 101]
[1]; [2]
  Ki: 200 to 10000 nM
LasB
  inhibition at 25 µM: 60 to 75%

## COc1ccc(-c2csc(CNC(=O)C3(CC(=O)[O-])Cc4ccccc4C3)n2)cc1C(=O)N1CCC([N+](C)(C)C)CC1 [Example 138, 2-[2-[[4-[4-methoxy-3-[4-(trimethylammonio)piperidine-1-carbonyl]phenyl]thiazol-2-yl]methylcarbamoyl]indan-2-yl]acetate]
[1]
  Ki: 200 to 10000 nM
LasB
  inhibition at 25 µM: 10 to 60%

## COc1cc(OCc2ccncc2)ccc1-c1csc(CNC(=O)C2(CC(=O)O)Cc3ccccc3C2)n1 [Example 74, 2-[2-[[4-[2-methoxy-4-(4-pyridylmethoxy)phenyl]thiazol-2-yl]methylcarbamoyl]indan-2-yl]acetic acid]
[1]
  Ki: < 50 nM
LasB
  inhibition at 25 µM: > 75%

## COc1ccc(-c2csc(CNC(=O)C3(CC(=O)O)Cc4ccccc4C3)n2)cc1C(=O)N1CCC(N(C)C)CC1 [Example 137, 2-[2-[[4-[3-[4-(dimethylamino)piperidine-1-carbonyl]-4-methoxy-phenyl]thiazol-2-yl]methylcarbamoyl]indan-2-yl]acetic acid]
[1]
  Ki: 50 to 200 nM
LasB
  inhibition at 25 µM: 10 to 60%

## O=C(O)CC1(C(=O)NCc2nc(-c3ccccc3OCCO)cs2)Cc2ccccc2C1 [Example 13, 2-[2-[[4-[2-(2-hydroxyethoxy)phenyl]thiazol-2-yl]methylcarbamoyl]indan-2-yl]acetic acid]
[1]
  Ki: 50 to 200 nM
LasB
  inhibition at 25 µM: 60 to 75%

## COc1cc(OCCC[N+]2(C)CCCC2)ccc1-c1csc(CNC(=O)C2(CC(=O)[O-])Cc3cc(F)c(F)cc3C2)n1 [Example 73, 2-[5,6-difluoro-2-[[4-[2-methoxy-4-[3-(1-methylpyrrolidin-1-ium-1-yl)propoxy]phenyl]thiazol-2-yl]methylcarbamoyl]indan-2-yl)acetate]
[1]
  Ki: 50 to 200 nM
LasB
  inhibition at 25 µM: 60 to 75%
